Measured values reported in patent publication US20050282873A1, “Epothilone derivative for the treatment of hepatoma and other cancer diseases” (priority 2002, published 2005).

Experiments:
Assay type in all cases: in vivo, human
[1] = tested on: ovarian, primary Fallopian, or primary peritoneal cancer; assay: Open-label, single-arm, two-stage, multi-center efficacy study in ovarian, primary Fallopian or primary peritoneal cancer patients; details: i.v. 2.5 mg/m2, 5 minute bolus infusion weekly for three weeks, one week off; patients failed or relapsed within six months of first-line taxane/platinum therapy; study ongoing
Protocol: An open-label, single-arm, two-stage, multi-center study investigating the efficacy of 7,11-Dihydroxy-8,8,10,12,16-pentamethyl-3-[1-methyl-2-(2-methyl-thiazol-4-yl)-vinyl]-4,17-dioxa-bicyclo[14.1.0]heptadecane-5,9-dione administered intravenously at 2.5 mg/m2 as a 5 minute bolus infusion repeated every week for three weeks followed by one week off in patients who have ovarian, primary Fallopian, or primary peritoneal cancer. […] Chemotherapies other than taxane/platinum or an additional agent to this regimen will not be allowed. […] A third therapeutic agent administered as part of the taxane/platinum therapy is permitted for refractory disease if all other criteria are met.

advanced renal cancer = assay: Open-label, single-arm, two-stage multicenter efficacy study in patients with advanced renal cancer; details: i.v. 2.5 mg/m2, 5 minute bolus infusion weekly for three weeks, one week off, trial ongoing
Protocol: An open-label, single-arm, two-stage multicenter study investigating the efficacy of 7,11-Dihydroxy-8,8,10,12,16-pentamethyl-3-[1-methyl-2-(2-methyl-thiazol-4-yl)-viny]-4,17-dioxa-bicyclo[14.1.0]heptadecane-5,9-dione administered intravenously at 2.5 mg/m2 as a 5 minute bolus infusion repeated every week for three weeks followed by one week off in patients with advanced renal cancer. 7,11-Dihydroxy-8,8,10,12,16-pentamethyl-3-[1-methyl-2-(2-methyl-thiazol-4-yl)-vinyl]-4,17-dioxa-bicyclo[14.1.0]heptadecane-5,9-dione is administered once every week for three weeks followed by a one-week drug holiday until either progression of disease or unacceptable toxicities occurs. Each four-week period is considered one cycle. Patients are evaluated for tumor response one week after their last dose of every other cycle, starting with Cycle 2. Patients may, at any time, have their dose reduced to 2.0 mg/m2 if in the investigators opinion the original dose is either intolerable or unsafe for any given patient, and without such a dose reduction the patient would be forced to withdraw from the study. All dose modifications are captured on the dose administration record CRF. The study period for efficacy evaluation is up to six cycles. The study will enroll patients with histologically confirmed transitional cell carcinoma of the kidney. […]

[2] = tested on: advanced colorectal cancer; assay: Open-label, single-arm, two-stage multicenter efficacy study in advanced colorectal cancer, weekly regimen; details: i.v. 2.5 mg/m2, 5 minute bolus infusion weekly for three weeks, one week off; colorectal cancer patients who failed fluoropyrimidine and Irinotecan or oxaliplatin; trial ongoing
Protocol: An open-label, single-arm, two-stage multicenter study to investigate the efficacy of 7,11-Dihydroxy-8,8,10,12,16-pentamethyl-3-[1-methyl-2-(2-methyl-thiazol-4-yl)vinyl]-4,17-dioxa-bicyclo[14.1.0]heptadecane-5,9-dione administered intravenously at 2.5 mg/m2 as a 5 minute bolus infusion repeated every week for three weeks followed by one week off in patients with advanced colorectal cancer. 7,11-Dihydroxy-8,8,10,12,16-pentamethyl-3-[1-methyl-2-(2-methyl-thiazol-4-yl)-vinyl-]-4,17-dioxa-bicyclo[14.1.0]heptadecane-5,9-dione is administered once every week for three weeks followed by a one-week drug holiday until either progression of disease or unacceptable toxicities occurs. Each four-week period is considered one cycle. Patients are evaluated for tumor response one week after their last dose of every other cycle, starting with Cycle 2. Patients may, at any time, have their dose reduced to 2.0 mg/m^2 if in the investigator's opinion the original dose is either intolerable or unsafe for any given patient, and without such a dose reduction the patient will be forced to withdraw from the study. All dose modifications are captured on the dose administration record CRF. The study period for efficacy evaluation is up to six cycles. […]

[3] = tested on: advanced colorectal cancer; assay: Open-label, single-arm, two-stage multicenter efficacy study in advanced colorectal cancer, once every three weeks; details: i.v. 6.0 mg/m^2, 5 minute bolus infusion once every three weeks; colorectal cancer patients who failed fluoropyrimidine and Irinotecan or oxaliplatin; trial ongoing
Protocol: An open-label, single-arm, two-stage, multicenter study to investigate the efficacy of 7,11-Dihydroxy-8,8,10,12,16-pentamethyl-3-[1-methyl-2-(2-methyl-thiazol-4-yl)-vinyl]4,17-dioxa-bicyclo[14.1.0]heptadecane-5,9-dione administered intravenously at 6.0 mg/m^2 as a 5 minute bolus infusion repeated once every three weeks in patients with advanced colorectal cancer. 7,11-Dihydroxy-8,8,10,12,16-pentamethyl-3-[1-methyl-2-(2-methyl-thiazol-4-yl)vinyl]4,17-dioxa-bicyclo[14.1.0]heptadecane-5,9-dione is administered once every three weeks until either progression of disease or unacceptable toxicities occurs. Each three-week period is considered one cycle. Patients are evaluated for tumor response one week after the last dose of every third cycle, starting with Cycle 3. Patients may, at any time, have their dose reduced to 5.4 mg/m^2 or 4.8 mg/m^2 if in the investigator's opinion the original dose is either intolerable or unsafe for any given patient, and without such a dose reduction the patient will be forced to withdraw from the study. All dose modifications are captured on the Dose Administration Record CRF.
The study period for efficacy evaluation is up to nine cycles. […]

[4] = tested on: androgen-independent prostate cancer; assay: Open-label, single-arm, two-stage multicenter efficacy study in androgen-independent prostate cancer; details: i.v. 2.5 mg/m^2, 5 minute bolus infusion weekly for three weeks, one week off; chemo-naïve or failed one prior chemotherapy; trial ongoing
Protocol: Open-label, single-arm, two-stage, multicenter study to investigate the efficacy of EPO906 administered intravenously at 2.5 mg/m^2 as a 5 minute bolus infusion once a week for three weeks followed by one week off in patients with androgen-independent prostate cancer who are chemo-naïve or who have failed one prior chemotherapy. 7,11-Dihydroxy-8,8,10,12,16-pentamethyl-3-[1-methyl-2-(2-methyl-thiazol-4-yl)-vinyl]-4,17-dioxa-bicyclo[14.1.0]heptadecane-5,9-dione is administered once every week for three weeks followed by a one-week drug holiday until either progression of disease or unacceptable toxicities occurs. Each four-week period is considered one cycle. Patients are evaluated for tumor response one week after their last dose of every other cycle, starting with Cycle 2. Patients may, at any time, have their dose reduced to 2.0 mg/m^2 if in the investigator's opinion the original dose is either intolerable or unsafe for any given patient, and without such a dose reduction the patient will be forced to withdraw from the study. All dose modifications are captured on the dose administration record CRF. The study period for efficacy evaluation is up to six cycles.
Patients taking PC-SPES must discontinue therapy for a minimum of 4 weeks. […]

SMILES: CC(=Cc1csc(C)n1)C1CC2OC2(C)CCCC(C)C(O)C(C)C(=O)C(C)(C)C(O)CC(=O)O1 (centres unmarked) [7,11-Dihydroxy-8,8,10,12,16-pentamethyl-3-[1-methyl-2-(2-methyl-thiazol-4-yl)-vinyl]-4,17-dioxa-bicyclo[14.1.0]heptadecane-5,9-dione]
- response of patients in the study [1]: Several patients show a positive response
- response of patients in the study (advanced renal cancer): Several patients show a positive response
- response of patients in the trial [2]: Several patients shown a positive response
- response of patients in the trial [3]: Several patients shown a positive response
- response of patients in the trial [4]: Several patients show a positive response
